The test deals with 628569-122-R-J1-PDC complex spheroid viability. Description: Anticancer human tumor 628569-122-R-J1-PDC patient-derived head and neck squamous carcinoma cell line growth inhibition [CLK]. To be noted: for IC50: curve of first compound; for viability, T/C: stronger effect = lower value. A digest of the protocol: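 Patient-derived tumor cells grown as complex spheroids with HUVEC endothelial cells and mesenchymal stem cells, treated with drug combinations. Concentrations descend in half-log steps from near clinical Cmax, or from 10 microM if Cmax unknown.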

Several values for one entry are separate records, joined by “and”; a condition that tells them apart may be missing. Identical values can stand only once.
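Also: spheroids exposed to agents for seven days before readout.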
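For viability, T/C in this document: 100% = DMSO vehicle control viability.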

As usually defined, the IC50 is the point on the concentration scale where inhibition reaches its midpoint. Usually viability, T/C stands for the result in the treated group divided by that in the control group, in per cent. As for `CC(C)CC(NC(=O)C(Cc1ccccc1)NC(=O)c1cnccn1)B(O)O` (stereo not drawn) + CNC(=O)c1ccc(Nc2nc(OC3CCCC3)c3c(-c4ccc5nc(C)oc5c4)c[nH]c3n2)c(OC)c1, the IC50 was 4.63 nM (second compound 0.0316 µM); 2.65 nM (second compound 0.1 µM); below 0.949 nM (second compound 0.316 µM); below 0.949 nM (second compound 1 µM); below 0.949 nM (second compound 3.16 µM); below 0.949 nM (second compound 10 µM). The viability, T/C (second compound 0.0316 µM, first compound 0.000949 µM) was 106%; the viability, T/C (second compound 0.0316 µM, first compound 0.003 µM) was 73.5%; the viability, T/C (second compound 0.0316 µM, first compound 0.00949 µM) was 11.5%; the viability, T/C (second compound 0.0316 µM, first compound 0.03 µM) was 2.71%; the viability, T/C (second compound 0.0316 µM, first compound 0.0949 µM) was 11.1%; the viability, T/C (second compound 0.0316 µM, first compound 0.3 µM) was 7.23%. The viability, T/C is, setting by setting: (second compound 0.1 µM, first compound 0.000949 µM) 67.5%; (second compound 0.1 µM, first compound 0.003 µM) 47.9%; (second compound 0.1 µM, first compound 0.00949 µM) 9.96%; (second compound 0.1 µM, first compound 0.03 µM) 3.01%; (second compound 0.1 µM, first compound 0.0949 µM) 8.44%; (second compound 0.1 µM, first compound 0.3 µM) 6.5%. The viability, T/C (second compound 0.316 µM, first compound 0.000949 µM) is 48.9%; the viability, T/C (second compound 0.316 µM, first compound 0.003 µM) is 41.4%; the viability, T/C (second compound 0.316 µM, first compound 0.00949 µM) was 9.14%; the viability, T/C (second compound 0.316 µM, first compound 0.03 µM) is 2.35%; the viability, T/C (second compound 0.316 µM, first compound 0.0949 µM) is 4.07%; the viability, T/C (second compound 0.316 µM, first compound 0.3 µM) was 3.8%. For the same compound, the viability, T/C (second compound 1 µM, first compound 0.000949 µM) is 46.9%; the viability, T/C (second compound 1 µM, first compound 0.003 µM) was 29.3%; the viability, T/C (second compound 1 µM, first compound 0.00949 µM) was 4.76%; the viability, T/C (second compound 1 µM, first compound 0.03 µM) was 10.9%; the viability, T/C (second compound 1 µM, first compound 0.0949 µM) was 17.6%; the viability, T/C (second compound 1 µM, first compound 0.3 µM) is 13.2%. Further, the viability, T/C (second compound 3.16 µM, first compound 0.000949 µM) is 46.5%; the viability, T/C (second compound 3.16 µM, first compound 0.003 µM) is 18%; the viability, T/C (second compound 3.16 µM, first compound 0.00949 µM) is 11.5%; the viability, T/C (second compound 3.16 µM, first compound 0.03 µM) was 21%; the viability, T/C (second compound 3.16 µM, first compound 0.0949 µM) is 9.26%; the viability, T/C (second compound 3.16 µM, first compound 0.3 µM) is 7.04%. Besides, the viability, T/C was 44.6% (second compound 10 µM, first compound 0.000949 µM); 19.1% (second compound 10 µM, first compound 0.003 µM); 9.08% (second compound 10 µM, first compound 0.00949 µM); 7.35% (second compound 10 µM, first compound 0.03 µM); 11.3% (second compound 10 µM, first compound 0.0949 µM); 12.8% (second compound 10 µM, first compound 0.3 µM).
As for `CCc1c2c(nc3ccc(O)cc13)-c1cc3c(c(=O)n1C2)COC(=O)[C@]3(O)CC`, the viability, T/C was 69.5% and 53% (compound 0.00316 µM); 50.6% and 38% (compound 0.01 µM); 50.3% and 45.5% (compound 0.0316 µM); 41.7% and 39% (compound 0.1 µM); 35.8% and 39% (compound 0.316 µM); 8.79% and 15.5% (compound 1 µM).
